From patent publication US12065654B2, “Plants having increased tolerance to herbicides” (BASF SE, priority 2014, dated 2024)

How the values were obtained:
Hordeum HPPD L320H = biological target: T1, Hordeum HPPD L320H (Hordeum vulgare, UniProt O48604, A164G/L320H/R146V/R147D/R148G); assay: HPPD activity assay, mutant; assay type: biochemical; conditions: Hordeum HPPD variant L320H; normalized on wild-type;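 note: reaction started with 4-HPP at 0.05 mM after 30 min preincubation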
T1 construct: His-tag (N); made in house; host or cells: E. coli BL21 (DE3)
T1 sequence (O48604 whole entry R146V/R147D/R148G/A164G/L320H): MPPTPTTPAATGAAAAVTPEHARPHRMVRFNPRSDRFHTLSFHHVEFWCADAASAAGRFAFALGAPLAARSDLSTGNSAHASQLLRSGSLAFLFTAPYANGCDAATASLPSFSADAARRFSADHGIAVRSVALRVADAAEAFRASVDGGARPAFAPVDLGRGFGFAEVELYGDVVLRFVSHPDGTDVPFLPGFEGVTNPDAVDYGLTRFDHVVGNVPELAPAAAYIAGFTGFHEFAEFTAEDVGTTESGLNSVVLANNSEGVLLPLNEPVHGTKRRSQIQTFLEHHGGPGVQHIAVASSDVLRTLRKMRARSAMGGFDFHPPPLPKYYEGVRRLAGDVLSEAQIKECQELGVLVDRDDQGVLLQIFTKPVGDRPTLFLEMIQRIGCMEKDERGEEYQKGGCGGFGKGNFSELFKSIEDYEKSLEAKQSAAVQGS
Method: (§1) The activity assay for HPPD is based on the analysis of homogentisic acid by reversed phase HPLC.
(§2) The assay mixture can contain 150 mM potassium phosphate buffer pH 7.0, 50 mM L-ascorbic acid, 100 μM Catalase (Sigma-Aldrich), 1 μM FeSO4 and 0.2 units of purified HPPD enzyme in a total volume of 505 μl. 1 unit is defined as the amount of enzyme that is required to produce 1 nmol of HGA per minute at 20° C.
(§3) The reaction is allowed to proceed for 45 min at room temperature. The reaction is stopped by the addition of 50 μl of 4.5 M phosphoric acid. The sample is filtered using a […] pore size PVDF filtration device. 5 μl of the cleared sample is analyzed on an UPLC HSS T3 column (particle size 1.8 μm, dimensions 2, 1×50 mm; Waters) by isocratic elution using 90% 20 mM NaH2PO4 pH 2.2, 10% methanol (v/v).
(§4) HGA is detected electrochemically at 750 mV (mode: DC; polarity: positive) and quantified by integrating peak areas (Empower software; Waters).
(§5) Inhibitors are dissolved in DMSO (dimethylsulfoxide) to a concentration of 0.5 mM. From this stock solution serial five-fold dilutions are prepared in DMSO, which are used in the assay. The respective inhibitor solution accounts for 1% of the assay volume. Thus, final inhibitor concentrations range from 5 μM to 320 pM, respectively. Activities are normalized by setting the uninhibited enzyme activity to 100%. IC50 values are calculated using non-linear regression.
(§6) Purified, mutant HPPD enzymes are obtained by the methods described above. Dose response and kinetic measurements are carried out using the described HPPD activity assay. Apparent michaelis constants (Km) and maximal reaction velocities (Vmax) are calculated by non-linear regression with the software GraphPad Prism 5 (GraphPad Software, La Jolla, USA) using a substrate inhibition model. […] Weighted means (by standard error) of K. and IC50 values are calculated from at least three independent experiments. The Cheng-Prusoff equation for competitive inhibition (Cheng, Y. C.; Prusoff, W. H. Biochem Pharmacol 1973, 22, 3099-3108) is used to calculate dissociation constants (Ki).
(§7) Field performance of the optimized HPPD enzyme, which is used as a herbicide tolerance trait may depend not only on its lack of sensitivity towards HPPD inhibiting herbicides but also on its activity. To assess the potential performance of a herbicide tolerance trait a tolerance index (TI) is calculated using the following formula: […]
(§8) Easy comparison and ranking of each trait is enabled by normalizing tolerance indexes on the respective wild-type HPPD.

[1] = biological target: T2, Hordeum HPPD L320H, P321A (Hordeum vulgare, UniProt O48604, L320H/P321A); assay: HPPD activity assay, mutant; assay type: biochemical; conditions: Hordeum HPPD variant L320H, normalized on wild-type
T2 construct: His-tag (N); made in house; host or cells: E. coli BL21 (DE3)
T2 sequence (O48604 whole entry R146V/R147D/R148G/A164G/L320H/P321A): as the sequence (O48604 whole entry R146V/R147D/R148G/A164G/L320H) above, with P321A counted along it
Method: as §1, §2, §3, §4, §5, §6, §7, §8

Hordeum HPPD L320N = biological target: T3, Hordeum HPPD L320N (Hordeum vulgare, UniProt O48604, A164G/L320N/R146V/R147D/R148G); assay: HPPD activity assay, mutant; assay type: biochemical; conditions: Hordeum HPPD variant L320N; normalized on wild-type;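 note: reaction started with 4-HPP at 0.05 mM after 30 min preincubation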
T3 construct: His-tag (N); made in house; host or cells: E. coli BL21 (DE3)
T3 sequence (O48604 whole entry R146V/R147D/R148G/A164G/L320N): as the sequence (O48604 whole entry R146V/R147D/R148G/A164G/L320H) above, with H320N counted along it
Method: as §1, §2, §3, §4, §5, §6, §7, §8

[2] = biological target: T4, Hordeum HPPD L353M, P321R, L320Q (Hordeum vulgare, UniProt O48604, L320Q/L353M/P321R); assay: HPPD activity assay, mutant; assay type: biochemical; conditions: Hordeum HPPD variant L353M, normalized on wild-type;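 note: reaction started with 4-HPP at 0.05 mM after 30 min preincubation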
T4 construct: His-tag (N); made in house; host or cells: E. coli BL21 (DE3)
T4 sequence (O48604 whole entry R146V/R147D/R148G/A164G/L320Q/P321R/L353M): as the sequence (O48604 whole entry R146V/R147D/R148G/A164G/L320H) above, with H320Q, P321R, L353M counted along it
Method: as §1, §2, §3, §4, §5, §6, §7, §8

[3] = biological target: T5, Hordeum HPPD L353M, P321R, L320N (Hordeum vulgare, UniProt O48604, L320N/L353M/P321R); assay: HPPD activity assay, mutant; assay type: biochemical; conditions: Hordeum HPPD variant L353M, normalized on wild-type
T5 construct: His-tag (N); made in house; host or cells: E. coli BL21 (DE3)
T5 sequence (O48604 whole entry R146V/R147D/R148G/A164G/L320N/P321R/L353M): as the sequence (O48604 whole entry R146V/R147D/R148G/A164G/L320H) above, with H320N, P321R, L353M counted along it
Method: as §1, §2, §3, §4, §5, §6, §7, §8

Hordeum HPPD F404L = biological target: T6, Hordeum HPPD F404L (Hordeum vulgare, UniProt O48604, A164G/F404L/R146V/R147D/R148G); assay: HPPD activity assay, mutant; assay type: biochemical; conditions: Hordeum HPPD variant F404L; normalized on wild-type
T6 construct: subcloned into a modified pET24D (Novagen) expression vector resulting in N-terminally His-tagged expression constructs; His tag (N); made in house; host or cells: E. coli BL21 (DE3)
T6 sequence (O48604 whole entry R146V/R147D/R148G/A164G/F404L): as the sequence (O48604 whole entry R146V/R147D/R148G/A164G/L320H) above, with H320L, F404L counted along it
Method: as §1, §2, §3, §4, §5, §6, §7, §8

Hordeum HPPD L334E = biological target: T7, Hordeum HPPD L334E (Hordeum vulgare, UniProt O48604, A164G/L334E/R146V/R147D/R148G); assay: HPPD activity assay, mutant; assay type: biochemical; conditions: Hordeum HPPD variant L334E; normalized on wild-type;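 note: reaction started with 4-HPP at 0.05 mM after 30 min preincubation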
T7 construct: His-tag (N); made in house; host or cells: E. coli BL21 (DE3)
T7 sequence (O48604 whole entry R146V/R147D/R148G/A164G/L334E): as the sequence (O48604 whole entry R146V/R147D/R148G/A164G/L320H) above, with H320L, L334E counted along it
Method: as §1, §2, §3, §4, §5, §6, §7, §8

Chlamydomonas HPPD1 = assay: HPPD activity assay; assay type: biochemical, Chlamydomonas reinhardtii; conditions: HPPD enzyme Chlamydomonas HPPD1;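 note: reaction started with 4-HPP at 0.05 mM after 30 min preincubation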
Method: as §1, §2, §3, §4, §5
as §6, with “Using methods which are described in the above examples or well known in the art, purified recombinant wild-type” for “Purified, mutant”, “characterized with respect to their kinetic properties” for “obtained by the methods described above. Dose response”, “sensitivity towards” for “kinetic measurements are carried out using the described”, “inhibiting herbicides.” for “activity assay.”, “Km” for “K.”
as §7, with “the” for “the optimized”
(§9) Easy comparison and ranking of each trait is enabled by normalizing tolerance indexes on Arabidopsis wild-type HPPD.

[4] = biological target: T8, Arabidopsis HPPD M335H, P336A, E363Q (Arabidopsis thaliana, UniProt P93836, E363Q/M335H/P336A); assay type: biochemical; conditions: Arabidopsis HPPD variant M335H, normalized on wild-type;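 note: reaction started with 4-HPP at 0.05 mM after 30 min preincubation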
T8 construct: His6 (N); made in house; host or cells: E. coli BL21 (DE3)
T8 sequence (P93836 whole entry M335H/P336A/E363Q): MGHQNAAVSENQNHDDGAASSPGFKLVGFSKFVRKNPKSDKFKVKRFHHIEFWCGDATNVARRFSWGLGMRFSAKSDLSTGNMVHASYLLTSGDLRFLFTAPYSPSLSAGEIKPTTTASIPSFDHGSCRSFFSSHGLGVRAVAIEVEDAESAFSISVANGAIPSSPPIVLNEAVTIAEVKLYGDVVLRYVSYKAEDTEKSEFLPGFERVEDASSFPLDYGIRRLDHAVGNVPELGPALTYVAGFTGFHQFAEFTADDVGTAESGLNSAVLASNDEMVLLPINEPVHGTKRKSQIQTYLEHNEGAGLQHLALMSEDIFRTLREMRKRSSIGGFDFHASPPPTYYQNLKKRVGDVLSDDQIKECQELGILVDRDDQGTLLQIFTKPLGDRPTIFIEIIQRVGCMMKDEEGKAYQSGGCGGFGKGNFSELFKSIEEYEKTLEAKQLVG
Method: as §1, §2, §3, §4, §5, §6, §7, §8

Arabidopsis HPPD F381I = biological target: T9, Arabidopsis HPPD F381I (Arabidopsis thaliana, UniProt P93836, F381I); assay type: biochemical; conditions: Arabidopsis HPPD variant F381I; normalized on wild-type;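 note: reaction started with 4-HPP at 0.05 mM after 30 min preincubation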
T9 construct: His6 (N); made in house; host or cells: E. coli BL21 (DE3)
T9 sequence (P93836 whole entry F381I): as the sequence (P93836 whole entry M335H/P336A/E363Q) above, with H335M, A336P, Q363E, F381I counted along it
Method: as §1, §2, §3, §4, §5, §6, §7, §8

[5] = biological target: T10, Arabidopsis HPPD M335H, P336A (Arabidopsis thaliana, UniProt P93836, M335H/P336A); assay type: biochemical; conditions: Arabidopsis HPPD variant M335H, normalized on wild-type;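 note: reaction started with 4-HPP at 0.05 mM after 30 min preincubation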
T10 construct: His6 (N); made in house; host or cells: E. coli BL21 (DE3)
T10 sequence (P93836 whole entry M335H/P336A): as the sequence (P93836 whole entry M335H/P336A/E363Q) above, with Q363E counted along it
Method: as §1, §2, §3, §4, §5, §6, §7, §8

HPPD Seq ID 67 ID10 = assay: HPPD activity assay; assay type: biochemical, Zea mays; conditions: HPPD enzyme Seq ID 67 ID10;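 note: reaction started with 4-HPP at 0.05 mM after 30 min preincubation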
Method: as §1, §2, §3, §4, §5
as §6, with “Using methods which are described in the above examples or well known in the art, purified recombinant wild-type” for “Purified, mutant”, “characterized with respect to their kinetic properties” for “obtained by the methods described above. Dose response”, “sensitivity towards” for “kinetic measurements are carried out using the described”, “inhibiting herbicides.” for “activity assay.”, “Km” for “K.”
as §7, with “the” for “the optimized”
as §9

HPPD Seq ID 69 ID406 = assay: HPPD activity assay; assay type: biochemical, Zea mays; conditions: HPPD enzyme Seq ID 69 ID406;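 note: reaction started with 4-HPP at 0.05 mM after 30 min preincubation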
Method: as §1, §2, §3, §4, §5
as §6, with “Using methods which are described in the above examples or well known in the art, purified recombinant wild-type” for “Purified, mutant”, “characterized with respect to their kinetic properties” for “obtained by the methods described above. Dose response”, “sensitivity towards” for “kinetic measurements are carried out using the described”, “inhibiting herbicides.” for “activity assay.”, “Km” for “K.”
as §7, with “the” for “the optimized”
as §9

| Compound | Normalized tolerance index (TI) (Hordeum HPPD L320H) | Normalized tolerance index (TI) [1] | Normalized tolerance index (TI) (Hordeum HPPD L320N) | Normalized tolerance index (TI) [2] | Normalized tolerance index (TI) [3] | Normalized tolerance index (TI) (Hordeum HPPD F404L) | Normalized tolerance index (TI) (Hordeum HPPD L334E) | TI normalized to Arabidopsis HPPD (Chlamydomonas HPPD1) | Normalized tolerance index (TI) [4] | Normalized tolerance index (TI) (Arabidopsis HPPD F381I) | Normalized tolerance index (TI) [5] | TI normalized to Arabidopsis HPPD (HPPD Seq ID 67 ID10) | TI normalized to Arabidopsis HPPD (HPPD Seq ID 69 ID406) |
| --- | --- | --- | --- | --- | --- | --- | --- | --- | --- | --- | --- | --- | --- |
| CS(=O)(=O)c1ccc(C(=O)C2C(=O)CCCC2=O)c(Cl)c1COCC(F)(F)F [Inhibitor 4, 2-[2-chloro-4-methylsulfonyl-3-(2,2,2-trifluoroethoxymethyl)benzoyl]cyclohexane-1,3-dione] | 5.1 | 4.3 | 1.5 | 1.3 | 2.2 | 1.2 | 2.1 | 0.1 | 0.3 | 0.1 | 0.1 | 26 | 5.5 |
| COCCOCc1nc(C(F)(F)F)ccc1C(=O)C1=C(O)C2CCC(C2)C1=O (stereo not shown) [Inhibitor 3, 2-hydroxy-3-[2-(2-methoxyethoxymethyl)-6-(trifluoromethyl)pyridine-3-carbonyl]bicyclo[3.2.1]oct-2-en-4-one] | 3 | 2.5 | 1.2 | 0.6 | 0.6 | 0.4 | 1.2 | 0.1 | 0.5 | 0.1 | 0.1 | 20.1 | 9.9 |
| CS(=O)(=O)c1ccc(C(=O)C2C(=O)CCCC2=O)c([N+](=O)[O-])c1 [Inhibitor 2, 2-(4-methylsulfonyl-2-nitro-benzoyl)cyclohexane-1,3-dione] | 1.2 | 3.5 | 0.3 | 2.2 | 0.4 | 0.9 | 4 | 0.1 | 0.3 | 0.1 | 0.1 | 22.9 | 5.6 |
| Cc1c(C(=O)c2cnn(C)c2O)ccc(S(C)(=O)=O)c1C1=NOCC1 [Inhibitor 1, [3-(4,5-dihydroisoxazol-3-yl)-2-methyl-4-methylsulfonyl-phenyl]-(5-hydroxy-1-methyl-pyrazol-4-yl)methanone] | 5.4 | 5.1 | 1.3 | 5.3 | 2.6 | 3 | 3.6 | 1.7 | 6.4 | 10.8 | 3.4 | 120.8 | 15 |
